Results from patent US20230150951A1, “2,5- OR 2,6-DISUBSTITUTED HYDROQUINONE DERIVATIVES WITH AT LEAST ONE CARBOXY, SULFO OR AMIDO GROUP USEFUL AS MEDICAMENTS” (OM PHARMA SA, priority 2020, published 2023).
Blank lines part the entries; values can stand above or below the compound they belong to.

Legend:
[1] = Prodrug stability in mouse plasma; assay type: in vitro ADME; details: for remaining after 1 h (mouse plasma): ester cleaved; for half-life: read-out: T1/2 (mouse plasma)
[2] = Prodrug stability in human plasma; assay type: in vitro ADME; details: for half-life: read-out: T1/2 (human plasma)
[3] = test system: ARPE-19 cells; test: Outer blood retinal barrier: ARPE-19 monolayer permeability to FITC-dextran; assay type: cell-based, human
Source text: (§1) The mechanisms of actions involved in the anti-permeability effect of the tested treatments were explored by assessing permeability to fluorescent dextran and proinflammatory cytokines production using their mRNA expression levels by RT-PCR.
(§2) Outer Blood Retinal Barrier conditions: human retinal pigment epithelial cells (RPE) cultures ARPE-19, a spontaneously immortalised human RPE cell line were obtained from American Type Culture Collection (Manassas, Va., USA). ARPE-19 cells and they were cultured in euglycaemic conditions (D-glucose (D-Glc), 5.5 mmol/L) and hyperglycaemic conditions (D-glucose, 25 mmol/L) for 18 days at 37° C. under 5% (vol./vol.) CO2 in medium (DMEM/F12) supplemented with 10% (vol./vol.) FBS (Hyclone; Thermo Fisher Scientific, UT, USA) and 1% (vol./vol.) penicillin/streptomycin (Hyclone; Thermo Fisher Scientific). ARPE-19 cells from passage 20 were used and the medium changed every 3-4 days. For permeability studies, ARPE-19 cells were seeded at 400,000 cells/ml (80,000 RPE cells/well) in 0.33 cm^2 HTS-Transwells (Costar; Corning, N.Y., USA). For real-time PCR, western blot analysis and immunofluorescence cells are seeded at 20,000 cells/ml.
(§3) Experimental conditions and treatments: apart from the euglycemic condition, eighteen different conditions were tested in cells cultured under 25 mmol/L D-glucose:
Condition 2) Cells are treated with diabetic milieu 25 mM D-Glucose+vehicle (days 15, 16 and 17 at one application/day) in order to evaluate their effect in preventing the cell damage provoked by the diabetic milieu.
Condition 9) Cells were treated with 25 mM D-Glucose and bevacizumab (0.2 mg/ml) for 72 h (days 15, 16 and 17 at one application/day) to evaluate their potential cytotoxic effects.
Condition 10)=Diabetic milieu; cells were treated with 25 mM D-Glucose+[…] (10 ng/ml)+TNF-α (25 ng/ml)+VEGF (25 ng/ml), for 48 h (days 16 and 17 at one application/day) in order to provoke the disruption of the monolayer.
Condition 17) Cells are treated with diabetic milieu (25 mM D-Glucose+IL-1β (10 ng/ml)+TNF-α (25 ng/ml)+VEGF (25 ng/ml))+bevacizumab (0.2 mg/mL) (days 15, 16 and 17 at one application/day) in order to evaluate their effect in preventing the cell damage provoked by the diabetic milieu.
Measurement of ARPE-19 permeability: The permeability of RPE cells was determined at 18 days by measuring the apical-to basolateral movements of FITC-dextran (40 kDa) (Sigma, St Louis, […]., USA) following a procedure previously reported by Villarroel et al. Exp Eye Res, 2009, 89, 913-920.

[4] = test system: human retinal endothelial cells (HRECs); test: Inner blood retinal barrier: HREC monolayer permeability to FITC-dextran; assay type: cell-based
Source text: as §1
Inner Blood Retinal Barrier conditions: primary human retinal endothelial cells (HRECs) were obtained from a vial of cryopreserved cells purchased from Innoprot (Vizcay, Spain). These cells were isolated from human retinal tissue of cadaveric eyes digested with 0.1 mg/mL collagenase type I at 37° C. for 1 hour. Then, endothelial cells were finally selected with CD31 antibody-coated magnetic beads (DynaBeads; Dynal, Oslo, Norway). HRECs were thawed in the laboratory and cultured in endothelial basal medium (EBM) containing, 5.5 mM D-glucose, 5% FBS (Fetal Bovine Serum), 100 U/mL penicillin, 100 μg/mL streptomycin, and ECG (Endothelial Cell Growth Supplement) supplement (Innoprot, Vizcay, Spain). Human fibronectin (MerckMillipore, Madrid, Spain) at 5 μg/mL was used for cell attachment. Cells at passages 2-3 will be used for the experiments. For experimentation, HRECs were grown to confluence and then cell culture media was changed to medium supplemented with 1% FBS for 24 h and then exposed to different treatments.
Conditions treatments: The same conditions specified for the experiment in ARPE-19 cells were used.
Measurement of HREC permeability: Permeability in HREC monolayers were obtained on permeable supports at 12×10^5 cells/well (24 wells, PCF filters, Merk Millipore). Inserts were incubated for 48 hours at 37° C. in 5% CO2-air to form the monolayer. At the end, medium was serum depleted 24 h before to proceed with the treatments. The lower chamber was filled with 600 μL of complete EBM medium and the upper chamber with 100 μL of cell suspension in serum depleted (1%).
To detect changes in the permeability, 100 μg/ml of fluorescent FITC-DEXTRAN (Sigma, Madrid, Spain), was added to the upper side of the insert. Aliquots of 200 μL from the basal compartment was read in a SpectraMax Gemini (Molecular Devices, Sunnyvale, Calif.) at a wavelength of excitation/emission 485/528 nm every 30 min. Finally, the concentration of dextran was determined by extrapolation of the fluorescence reads in a standard curve. Each condition was tested in triplicate.

[5] = test system: ARPE-19 cells; test: ROS and cytokine/VEGF mRNA production by ARPE-19 monolayer cells in non-diabetic and diabetic milieu; assay type: cell-based, human; details: ARPE19 monolayer, 0.2 mg/mL; for ROS: ROS % to 25 mM D-Glucose; for IL-1β R.Q. mRNA / IL-6 R.Q. mRNA / IL-18 R.Q. mRNA / TNFα R.Q. mRNA / VEGF R.Q. mRNA: relative change vs 25 mM D-Gluc
Procedure: as §2, §3
• Proinflammatory cytokines were evaluated in ARPE-19 cells by RT-PCR and mRNA for IL-6, TNF-α, IL-1β, IL-18, VEGF, IL-10, FGF were measured using the double delta CT method 2-ΔΔCT with Cts values for the gene of interest and the endogenous human B-actin to obtain ΔCT; mRNA values were expressed as relative change with respect to the condition 25 mM D-Gluc. (ref: Livak K J, Analysis of Relative Gene Expression Data Using Real-Time Quantitative PCR and the 2-ΔΔCT Method, Methods, 2001, 25(4), 402-408, doi 10.1006/meth.2001.1262) • ROS production was evaluated using Cell Biolabs' OxiSelect™ Intracellular ROS Assay (Green Fluorescence) (Bionova, Madrid, Spain). The assay employs the cell-permeable fluorogenic probe 2′, 7′-Dichlorodihydrofluorescin diacetate (DCFH-DA), oxidized to highly fluorescent 2′, 7′-Dichlorodihydrofluorescein (DCF) by cellular ROS. • Endothelin-1, PDGF and VCAM-1 expression was analyzed in HREC monolayers by immunohistochemical analysis and by RT-PCR. • TJ expression (ZO) is analyzed in ARPE-19 and HREC monolayers by immunohistochemical analysis.

[6] = diabetic milieu (25 mM D-Gluc + VEGF, TNF-α, IL-1β)

remaining after 1 h (mouse plasma) [1]: 49% | half-life [1]: 0.743 h | half-life [2]: > 3 h
Compound: CC(OC(=O)c1cc(NC(=O)c2cc(O)c(C(=O)Nc3ccc(O)c(C(=O)O)c3)cc2O)ccc1O)OC(=O)C(C)(C)C (stereo not shown) [Ic-007a-pive1, 5-[[4-[[3-[1-(2,2-dimethylpropanoyloxy)ethoxycarbonyl]-4-hydroxy-phenyl]carbamoyl]-2,5-dihydroxy-benzoyl]amino]-2-hydroxy-benzoic acid]

Stability in mouse plasma (in words) [1]: hydrolyzed rapidly | half-life [1]: 0.235 h | half-life [2]: > 3 h
Compound: CC(C)(C)C(=O)OCOC(=O)c1cc(O)cc(CS(=O)(=O)Cc2cc(O)cc(C(=O)OCOC(=O)C(C)(C)C)c2O)c1O [IVc-059a-pivm2, 2,2-Dimethylpropanoyloxymethyl 2,5-dihydroxy-3-[[2,5-dihydroxy-3-(2,2-dimethyl-propanoyloxymethoxycarbonyl)phenyl]methylsulfonylmethyl]benzoate]

Stability in mouse plasma (in words) [1]: hydrolyzed rapidly | half-life [1]: 0.112 h | half-life [2]: > 3 h
Compound: CC(C)(C)C(=O)OCOC(=O)c1cc(O)cc(CS(=O)(=O)Cc2cc(O)cc(C(=O)O)c2O)c1O [IVc-059a-pivm1, 2,5-Dihydroxy-3-[[2,5-dihydroxy-3-(2,2-dimethylpropanoyloxymethoxycarbonyl)phenyl]methyl-sulfonylmethyl]benzoic acid]

remaining after 1 h (mouse plasma) [1]: 65% | half-life [1]: 1.04 h | half-life [2]: > 3 h
Compound: CC(OC(=O)c1cc(NC(=O)c2cc(O)c(C(=O)Nc3ccc(O)c(C(=O)OC(C)OC(=O)C(C)(C)C)c3)cc2O)ccc1O)OC(=O)C(C)(C)C (stereo not shown) [Ic-007a-pive2, 1-(2,2-dimethylpropanoyloxy)ethyl 5-[[4-[[3-[1-(2,2-dimethylpropanoyloxy)ethoxycarbonyl]-4-hydroxy-phenyl]carbamoyl]-2,5-dihydroxy-benzoyl]amino]-2-hydroxybenzoate]

Stability in mouse plasma (in words) [1]: hydrolyzed rapidly | Stability in human plasma (in words) [2]: hydrolyzed rapidly
Compound: CC(OC(=O)c1cc(O)cc(CS(=O)(=O)Cc2cc(O)cc(C(=O)OC(C)OC(=O)C(C)(C)C)c2O)c1O)OC(=O)C(C)(C)C (stereo not shown) [IVc-059a-pive2, 3-[[3-[1-(2,2-Dimethylpropanoyloxy)ethoxycarbonyl]-2,5-dihydroxy-phenyl]methyl-sulfonyl-methyl]-2,5-dihydroxy-benzoic acid 1-(2,2-dimethylpropanoyloxy)ethyl ester]

More lines, now with the values behind:

Compound: CC(OC(=O)c1cc(O)cc(CS(=O)(=O)Cc2cc(O)cc(C(=O)O)c2O)c1O)OC(=O)C(C)(C)C (stereo not shown) [IVc-059a-pive1, 3-[[3-[1-(2,2-Dimethylpropanoyloxy)ethoxycarbonyl]-2,5-dihydroxy-phenyl]methylsulfonyl-methyl]-2,5-dihydroxy-benzoic acid]
Stability in mouse plasma (in words) [1]: Hydrolyzed Rapidly

Compound: O=C(O)c1cc(O)cc(CS(=O)(=O)Cc2cc(O)cc(C(=O)OCCN3CCOCC3)c2O)c1O [IVc-059a-mpe1, 2,5-Dihydroxy-3-[[2,5-hydroxy-3-(2-morpholinoethoxycarbonyl)phenyl]methylsulfonyl-methyl]benzoic acid]
Stability in mouse plasma (in words) [1]: stable up to 60 min

Compound: bevacizumab: comparator in ARPE-19 and HREC permeability experiments [reference compound]
% permeability ARPE19 ([3]; No 9: 25 mM D-Gluc + 0.2 mg/mL): 109.5 ± 22.9% | % permeability ARPE19 ([3]; No 17: 25 mM D-Gluc + 0.2 mg/mL + VEGF, TNF-α, (diabetic milieu)): 120.7 ± 30.1% | % permeability HREC ([4]; No 9: 25 mM D-Gluc + 0.2 mg/mL): 127.1 ± 26.2% | % permeability HREC ([4]; No 17: 25 mM D-Gluc + 0.2 mg/mL + VEGF, TNF-α, IL-β (diabetic milieu)): 129.0 ± 35.3% | ROS ([5]; 25 mM D-Gluc): 110 ± 54% | IL-1β R.Q. mRNA ([5]; 25 mM D-Gluc): 1.46 ± 0.72 R.Q. | IL-6 R.Q. mRNA ([5]; 25 mM D-Gluc): 0.64 ± 0.34 R.Q. | IL-18 R.Q. mRNA ([5]; 25 mM D-Gluc): 0.09 ± 0.01 R.Q. | TNFα R.Q. mRNA ([5]; 25 mM D-Gluc): 0.46 ± 0.63 R.Q. | VEGF R.Q. mRNA ([5]; 25 mM D-Gluc): 1.68 ± 0.83 R.Q. | ROS [5, 6]: 111 ± 50% | IL-1β R.Q. mRNA [5, 6]: 31.22 ± 12.65 R.Q. | IL-6 R.Q. mRNA [5, 6]: 32.35 ± 13.48 R.Q. | IL-18 R.Q. mRNA [5, 6]: 0.53 ± 0.04 R.Q. | TNFα R.Q. mRNA [5, 6]: 1.37 ± 0.27 R.Q. | VEGF R.Q. mRNA [5, 6]: 3.88 ± 0.68 R.Q.

Compound: O=C(OCCN1CCOCC1)c1cc(O)cc(CS(=O)(=O)Cc2cc(O)cc(C(=O)OCCN3CCOCC3)c2O)c1O [IVc-059a-mpe2, 2,5-Dihydroxy-3-[[2,5-hydroxy-3-(2-morpholinoethoxycarbonyl)phenyl]methylsulfonyl-methyl]benzoic acid 2-morpholinoethyl ester]
Stability in mouse plasma (in words) [1]: stable up to 60 min | T1/2 (human plasma) [2]: > 3 h
